These compounds were tested against PIK3CG (human) (UniProt P48736) (assay: Inhibition of PIK3CG Kinase Activity).
Chain of PIK3CG (human) (P48736 whole entry, looked up): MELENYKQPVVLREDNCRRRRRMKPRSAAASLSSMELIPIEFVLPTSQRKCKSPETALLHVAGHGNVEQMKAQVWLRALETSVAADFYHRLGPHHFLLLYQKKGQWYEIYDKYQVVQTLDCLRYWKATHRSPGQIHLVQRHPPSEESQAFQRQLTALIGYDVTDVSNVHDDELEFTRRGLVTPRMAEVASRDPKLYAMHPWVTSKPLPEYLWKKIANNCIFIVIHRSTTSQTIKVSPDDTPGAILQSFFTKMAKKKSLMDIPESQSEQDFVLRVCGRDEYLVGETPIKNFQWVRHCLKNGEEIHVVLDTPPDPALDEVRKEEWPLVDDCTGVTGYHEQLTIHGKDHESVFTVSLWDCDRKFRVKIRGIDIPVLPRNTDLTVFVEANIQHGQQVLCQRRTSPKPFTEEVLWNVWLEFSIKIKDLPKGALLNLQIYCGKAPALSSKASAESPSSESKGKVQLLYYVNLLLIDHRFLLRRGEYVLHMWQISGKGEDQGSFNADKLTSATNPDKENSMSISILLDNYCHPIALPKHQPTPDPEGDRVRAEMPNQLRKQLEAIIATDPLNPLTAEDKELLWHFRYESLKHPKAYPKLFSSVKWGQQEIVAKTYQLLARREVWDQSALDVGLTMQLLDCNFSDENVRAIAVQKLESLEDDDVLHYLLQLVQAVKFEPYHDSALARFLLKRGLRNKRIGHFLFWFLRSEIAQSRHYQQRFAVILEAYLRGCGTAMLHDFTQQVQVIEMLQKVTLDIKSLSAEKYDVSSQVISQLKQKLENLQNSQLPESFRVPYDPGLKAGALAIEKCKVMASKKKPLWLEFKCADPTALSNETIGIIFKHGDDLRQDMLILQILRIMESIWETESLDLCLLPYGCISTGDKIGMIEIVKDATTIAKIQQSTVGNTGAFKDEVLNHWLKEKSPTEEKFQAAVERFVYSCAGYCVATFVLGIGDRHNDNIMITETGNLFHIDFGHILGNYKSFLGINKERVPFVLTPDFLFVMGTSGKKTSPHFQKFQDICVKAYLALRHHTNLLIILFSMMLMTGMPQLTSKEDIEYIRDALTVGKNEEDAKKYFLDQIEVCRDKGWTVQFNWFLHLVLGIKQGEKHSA

COc1cc(-c2cc(C)c3c(n2)CN(c2ccc(OCCC(F)(F)F)nc2)C3=O)cnc1OC and COc1cc(N2Cc3nc(-c4cnc(OC)c(OC)c4)cc(C)c3C2=O)ccn1 cannot be ordered by Ki: under 0.1 µM for the first, under 0.1 µM for the second.

CCCOc1cc(-c2cc(C)c3c(n2)CN(c2cn[nH]c2)C3=O)cnc1OC and COc1cc(N2Cc3nc(-c4cnc(OC)c(OC)c4)cc(C)c3C2=O)cnc1CO cannot be ordered by Ki: under 0.1 µM for the first, under 0.1 µM for the second.

COc1ncc(-c2cc(C)c3c(n2)C(C)(C)N(c2cnn(C(C)(C)C#N)c2)C3=O)cc1OCC(F)F and COc1cc(-c2cc(C)c3c(n2)C2(CCOCC2)N(c2cnn(C(C)(C)C#N)c2)C3=O)cnc1OC cannot be ordered by Ki: under 0.1 µM for the first, under 0.1 µM for the second.

Compared with COc1cc(-c2ccc3c(c2)CN(c2cnn(CC4CCCO4)c2)C3=O)cnc1OC (configuration not stated), COc1cc(-c2ccc3c(c2)CN(c2cnn(CC#N)c2)C3=O)cnc1OC is lower in Ki: 0.1 to 0.49 µM for the first, under 0.1 µM for the second. The second binds more tightly here.

COc1cc(-c2cc(C)c3c(n2)CN(c2ccn([C@@H]4CCOC4)n2)C3=O)cnc1F and COc1cncc(-c2cc(C)c3c(n2)CN(c2ccn([C@@H]4CCOC4)n2)C3=O)c1 cannot be ordered by Ki: under 0.1 µM for the first, under 0.1 µM for the second.

COCCOCCOc1ncc(-c2cc(C)c3c(n2)CN(c2cnn(CC#N)c2)C3=O)cc1OC and COCCOCCOc1ncc(-c2cc(C)c3c(c2)CN(c2cnn(CC#N)c2)C3=O)cc1OC cannot be ordered by Ki: under 0.1 µM for the first, under 0.1 µM for the second.

First: COc1cc(-c2ccc3c(n2)CN(c2cc(C)[nH]n2)C3=O)cnc1OC
Second: CCc1cc(N2Cc3nc(-c4cnc(OC)c(OC)c4)ccc3C2=O)n[nH]1
The Ki of the first is lower: under 0.1 µM for the first, 0.1 to 0.49 µM for the second.

Compared with COc1cncc(-c2cc(C)c3c(n2)[C@H](C)N(c2cn[nH]c2)C3=O)c1, COc1cncc(-c2cc(C)c3c(n2)C(C)N(c2cnccn2)C3=O)c1 (configuration not stated) is higher in Ki: under 0.1 µM for the first, 0.1 to 0.49 µM for the second. The first binds more tightly here.

CCn1cc(N2Cc3nc(-c4cncc(OC)c4)cc(C)c3C2=O)cn1 and CCn1cc(N2Cc3nc(-c4cncc(OCC(F)(F)F)c4)cc(C)c3C2=O)cn1 cannot be ordered by Ki: under 0.1 µM for the first, under 0.1 µM for the second.

CO[C@H]1c2nc(-c3cncc(OCC(F)F)c3)cc(C)c2C(=O)N1c1cnn(CC(F)(F)F)c1 and COc1cncc(-c2cc(C)c3c(n2)[C@H](C)N(c2cnn(CC(F)(F)F)c2)C3=O)c1 cannot be ordered by Ki: under 0.1 µM for the first, under 0.1 µM for the second.

COc1ncc(-c2ccc3c(n2)CN(c2cnn(CC(F)(F)F)c2)C3=O)cc1CO and Cc1ncc(-c2ccc3c(n2)CN(c2cnn(CC(F)(F)F)c2)C3=O)cc1O fall in the same range of Ki: 0.1 to 0.49 µM for the first, 0.1 to 0.49 µM for the second.

COc1ccc(-c2cc(C)c3c(c2)CN(c2cnn(CC(F)(F)F)c2)C3=O)cc1OC and COc1cc(OC)c(-c2cc(C)c3c(c2)CN(c2cnn(CC(F)(F)F)c2)C3=O)cn1 cannot be ordered by Ki: under 0.1 µM for the first, under 0.1 µM for the second.

COc1cc(-c2cc(Cl)c3c(n2)CN(c2cnn(CC#N)c2)C3=O)cnc1OC and COc1cc(-c2ccc3c(n2)CN(c2cnn(CCC#N)c2)C3=O)cnc1OC cannot be ordered by Ki: under 0.1 µM for the first, under 0.1 µM for the second.

COc1cc(-c2cc(C)c3c(n2)C(C)N(c2cnn(C[C@H](C)O)c2)C3=O)cnc1OC (some centres not stated) and COc1cc(-c2cc(C)c3c(n2)C(C)(C)N(c2cnn(C[C@@H](C)O)c2)C3=O)cnc1OC cannot be ordered by Ki: under 0.1 µM for the first, under 0.1 µM for the second.

Cc1cc(-c2cncc(OC(F)F)c2)nc2c1C(=O)N(c1cnn(CC(F)(F)F)c1)C21CC1 and COc1cncc(-c2cc(C)c3c(n2)[C@@]2(CCOC2)N(c2cnn(CC(F)(F)F)c2)C3=O)c1 cannot be ordered by Ki: under 0.1 µM for the first, under 0.1 µM for the second.

CSc1cncc(-c2cc(C)c3c(n2)CN(c2cnn(CC(F)(F)F)c2)C3=O)c1 and Cc1cc(-c2cnc(C)c(O)c2)nc2c1C(=O)N(c1cnn(CC(F)(F)F)c1)C2 cannot be ordered by Ki: under 0.1 µM for the first, under 0.1 µM for the second.

COc1ncc(-c2cc(C)c3c(n2)CN(c2ccn(C4COC4)n2)C3=O)cc1OCC1CC1 and COc1cc(-c2cc(C)c3c(n2)CN(c2ccn(C)n2)C3=O)cnc1OC cannot be ordered by Ki: under 0.1 µM for the first, under 0.1 µM for the second.

Compared with COc1cc(-c2ccc3c(n2)CN(c2ccc(N4CCC(CO)C4)nc2)C3=O)cnc1OC (configuration not stated), CCn1cc(N2Cc3nc(-c4cnc(OC)c(OC)c4)ccc3C2=O)ccc1=O is lower in Ki: 0.1 to 0.49 µM for the first, under 0.1 µM for the second. The second binds more tightly here.

COc1ccc(-c2cc(C)c3c(n2)CN(c2cnn(CC(F)(F)F)c2)C3=O)nc1OC and COc1cc(-c2cc(C)c3c(n2)CN(c2cnn(CC(F)(F)F)c2)C3=O)cnc1C cannot be ordered by Ki: under 0.1 µM for the first, under 0.1 µM for the second.

Cc1cc(-c2cncc(OCC(F)(F)F)c2)nc2c1C(=O)N(c1cnn(CC(F)(F)F)c1)C2 and Cc1cc(-c2cncc(OCC(F)(F)F)c2)cc2c1C(=O)N(c1cnn(CC(F)(F)F)c1)C2C (configuration not stated) cannot be ordered by Ki: under 0.1 µM for the first, under 0.1 µM for the second.

COc1ncc(-c2ccc3c(n2)C(C)N(c2cnn(CC(F)(F)F)c2)C3=O)cc1OC(F)F (configuration not stated) and COc1ncc(-c2cc(C)c3c(c2)C(C)N(c2cnn(CC(F)(F)F)c2)C3=O)cc1OC(F)F (configuration not stated) cannot be ordered by Ki: under 0.1 µM for the first, under 0.1 µM for the second.

COc1cc(OC)cc(-c2cc(C)c3c(n2)C(C)N(c2cnn(CC(F)(F)F)c2)C3=O)c1 (configuration not stated) and COc1cncc(-c2cc(C)c3c(c2)C(C)N(c2cnn(CC(F)(F)F)c2)C3=O)c1 (configuration not stated) cannot be ordered by Ki: under 0.1 µM for the first, under 0.1 µM for the second.

Compared with COc1cc(-c2ccc3c(c2)CN(c2cn(C)nn2)C3=O)cnc1OC, COc1cc(-c2ccc3c(c2)CN(c2ccn(CC(N)=O)n2)C3=O)cnc1OC is higher in Ki: under 0.1 µM for the first, 0.1 to 0.49 µM for the second.

COc1cc(-c2ccc3c(n2)C2(CCOCC2)N(c2cnn(CC(F)(F)F)c2)C3=O)cnc1OC and COc1cc(-c2cc(C)c3c(n2)C2(CCCO2)N(c2cnn(CC(F)(F)F)c2)C3=O)cnc1OC (configuration not stated) cannot be ordered by Ki: under 0.1 µM for the first, under 0.1 µM for the second.

COCCO[C@@H]1c2nc(-c3cnc(OC)c(OC)c3)ccc2C(=O)N1c1cnn(CC(F)(F)F)c1 and COc1cc(-c2ccc3c(n2)[C@@H](C)N(c2cnn(CC(C)(C)O)c2)C3=O)cnc1OC cannot be ordered by Ki: under 0.1 µM for the first, under 0.1 µM for the second.

First: COc1cc(-c2ccc3c(n2)CN(c2cnn(CC4CCN(C(=O)OC(C)(C)C)CC4)c2)C3=O)cnc1OC
Second: COCn1cc(N2Cc3nc(-c4cnc(OC)c(OC)c4)ccc3C2=O)cn1
The Ki of the first is higher: 0.1 to 0.49 µM for the first, under 0.1 µM for the second.

COc1cc(-c2ccc3c(n2)CN(c2cnn(CC4(C)COC4)c2)C3=O)cnc1OC and COCCn1cc(N2Cc3nc(-c4cnc(OC)c(OC)c4)ccc3C2=O)cn1 cannot be ordered by Ki: under 0.1 µM for the first, under 0.1 µM for the second.

CCc1cc(N2Cc3nc(-c4cnc(OC)c(OC)c4)ccc3C2=O)nn1C and COc1cc(-c2ccc3c(n2)CN(c2ccc(C)s2)C3=O)cnc1OC cannot be ordered by Ki: under 0.1 µM for the first, under 0.1 µM for the second.

Compared with CCOc1ncc(-c2cc(C)c3c(n2)C2(CCCO2)N(c2ccn(CC)n2)C3=O)cc1OC (configuration not stated), COc1cc(-c2ccc3c(n2)CN(c2ccn(CC4CCCCO4)n2)C3=O)cnc1OC (configuration not stated) is lower in Ki: 0.1 to 0.49 µM for the first, under 0.1 µM for the second. The second binds more tightly here.

COc1cncc(-c2cc(C)c3c(n2)C(C)N(c2ccn(CC(C)(C)O)n2)C3=O)c1 (configuration not stated) and COc1cncc(-c2cc(C)c3c(n2)CN(c2cnn(C(C)(C)C#N)c2)C3=O)c1 cannot be ordered by Ki: under 0.1 µM for the first, under 0.1 µM for the second.

Compared with N#CCn1cc(N2Cc3cc(-c4cnc5ccccc5c4)ccc3C2=O)cn1, COc1ncc(-c2ccc3c(c2)CN(c2cnn(CC#N)c2)C3=O)c(OC)n1 is lower in Ki: 0.1 to 0.49 µM for the first, under 0.1 µM for the second.

CCOc1cncc(-c2cc(C)c3c(n2)[C@@]2(CCOC2)N(c2cnn(CC(F)(F)F)c2)C3=O)c1 and Cc1cc(-c2cncc(OC3CC3)c2)nc2c1C(=O)N(c1cnn(CC(F)(F)F)c1)C2(C)C cannot be ordered by Ki: under 0.1 µM for the first, under 0.1 µM for the second.

Compared with CCCOCCOc1ncc(-c2cc(C)c3c(n2)CN(c2cnn(CC(F)(F)F)c2)C3=O)cc1OC, COc1ncc(-c2cc(C)c3c(n2)CN(c2cnn(CC(F)(F)F)c2)C3=O)cc1OCC(F)F is lower in Ki: 0.1 to 0.49 µM for the first, under 0.1 µM for the second.

COc1cc(-c2ccc3c(n2)[C@@H](C)N(c2cnn(CC#N)c2)C3=O)cnc1OC and COc1cc(-c2ccc3c(n2)C(C)N(c2cn[nH]c2)C3=O)cnc1OC (configuration not stated) cannot be ordered by Ki: under 0.1 µM for the first, under 0.1 µM for the second.

COc1cc(-c2ccc3c(c2)CN(c2cc(C)ns2)C3=O)cnc1OC and COc1cc(-c2ccc3c(c2)CN(c2cncc(C#N)c2)C3=O)cnc1OC fall in the same range of Ki: 0.1 to 0.49 µM for the first, 0.1 to 0.49 µM for the second.

COc1cc(-c2cc(C)c3c(n2)CN(c2nc(C)cs2)C3=O)cnc1OC and COc1cc(-c2cc(C)c3c(n2)CN(c2cncs2)C3=O)cnc1OC cannot be ordered by Ki: under 0.1 µM for the first, under 0.1 µM for the second.

First: CCn1cc(N2Cc3cc(-c4cnc(OC)nc4OC)ccc3C2=O)cn1
Second: COc1cc(-c2ccc3c(n2)CN(c2cnn(CC(F)F)c2)C3=O)cnc1OC
The Ki of the first is higher: 0.1 to 0.49 µM for the first, under 0.1 µM for the second. The second binds more tightly here.

COc1cc(-c2ccc3c(n2)CN(c2cnn(CCN(C)C)c2)C3=O)cnc1OC and COc1cc(-c2ccc3c(n2)CN(c2cnn(CCN4CCCCC4)c2)C3=O)cnc1OC fall in the same range of Ki: 0.1 to 0.49 µM for the first, 0.1 to 0.49 µM for the second.

CNC(=O)c1cncc(-c2cc(C)c3c(n2)C(C)(C)N(c2cnn(CC(F)(F)F)c2)C3=O)c1 and C=CCNC(=O)c1cncc(-c2cc(C)c3c(n2)C(C)(C)N(c2cnn(CC(F)(F)F)c2)C3=O)c1 cannot be ordered by Ki: under 0.1 µM for the first, under 0.1 µM for the second.

Cc1cc(-c2cncc(C(=O)NCC(F)(F)F)c2)nc2c1C(=O)N(c1cnn(CC(F)(F)F)c1)C2(C)C and Cc1cc(-c2cncc(C(=O)N(C)C(C)CO)c2)nc2c1C(=O)N(c1cnn(CC(F)(F)F)c1)C2(C)C (configuration not stated) cannot be ordered by Ki: under 0.1 µM for the first, under 0.1 µM for the second.

CCOc1cc(-c2ccc3c(n2)CN(c2cnn(CC#N)c2)C3=O)cnc1OCC and COc1ccc(-c2ccc3c(n2)CN(c2cnn(CC#N)c2)C3=O)c(OC)n1 cannot be ordered by Ki: under 0.1 µM for the first, under 0.1 µM for the second.

COc1cc(-c2ccc3c(c2)CN(c2cccc(CC#N)c2)C3=O)cnc1OC and COc1cc(-c2ccc3c(n2)CN(c2cnn(Cc4ccccn4)c2)C3=O)cnc1OC cannot be ordered by Ki: under 0.1 µM for the first, under 0.1 µM for the second.

COc1cc(-c2ccc3c(n2)CN(c2nccs2)C3=O)cnc1OC and COc1cc(-c2ccc3c(n2)C(C)N(c2ccn(C)n2)C3=O)cnc1OC (configuration not stated) cannot be ordered by Ki: under 0.1 µM for the first, under 0.1 µM for the second.

Compared with Cc1cc(-c2cncc(S(=O)(=O)N(C)C)c2)nc2c1C(=O)N(c1ccn([C@H]3CCOC3)n1)C2, CCNC(=O)c1cncc(-c2cc(C)c3c(n2)CN(c2ccn([C@H]4CCOC4)n2)C3=O)c1 is higher in Ki: under 0.1 µM for the first, 0.1 to 0.49 µM for the second.

COCCOc1ncc(-c2cc(C)c3c(c2)CN(c2cnn(CC(F)(F)F)c2)C3=O)cc1OC and COc1cc(-c2cc3c(c(C)n2)C(=O)N(c2cnn(CC(F)(F)F)c2)C3)cnc1OC cannot be ordered by Ki: under 0.1 µM for the first, under 0.1 µM for the second.

COc1cc(-c2ccc3c(n2)C(C)N(c2cccc(C(C)(C)C#N)n2)C3=O)cnc1OC (configuration not stated) and COc1cc(-c2ccc3c(n2)C(C)N(c2cccc(C(O)C(F)(F)F)n2)C3=O)cnc1OC (configuration not stated) cannot be ordered by Ki: under 0.1 µM for the first, under 0.1 µM for the second.

Compared with COCc1cccc(-c2cc(C)c3c(n2)CN(c2cnn(C(C)(C)C#N)c2)C3=O)c1, Cc1cc(-c2cncc(C#N)c2)nc2c1C(=O)N(c1cnn(CC#N)c1)C2 is lower in Ki: 0.1 to 0.49 µM for the first, under 0.1 µM for the second.

COc1cc(-c2ccc3c(n2)CN(c2cnn(Cc4cccc5c4OCCCO5)c2)C3=O)cnc1OC and COc1ncc(-c2cc(C)c3c(n2)C(C)(C)N(c2cnn(CC(F)(F)F)c2)C3=O)cc1C(=O)N[C@@H]1CCOC1 cannot be ordered by Ki: under 0.1 µM for the first, under 0.1 µM for the second.

For Cc1cc(-c2cncc(C(=O)N3CCCC3)c2)nc2c1C(=O)N(c1cnn(CC(F)(F)F)c1)C2, the Ki was 0.1 to 0.49 µM.
